Data taken from PMC8041284, “Tunable Methacrylamides for Covalent Ligand Directed Release Chemistry” (Journal of the American Chemical Society, 2021).
Where no end group is shown, it is not given here.

These compounds were tested against T1, BTK (Homo sapiens, UniProt Q06187) (assay: biochemical). Settings: read-out: BTK inhibition (%).
T1 sequence (Q06187 402-655 limits assumed): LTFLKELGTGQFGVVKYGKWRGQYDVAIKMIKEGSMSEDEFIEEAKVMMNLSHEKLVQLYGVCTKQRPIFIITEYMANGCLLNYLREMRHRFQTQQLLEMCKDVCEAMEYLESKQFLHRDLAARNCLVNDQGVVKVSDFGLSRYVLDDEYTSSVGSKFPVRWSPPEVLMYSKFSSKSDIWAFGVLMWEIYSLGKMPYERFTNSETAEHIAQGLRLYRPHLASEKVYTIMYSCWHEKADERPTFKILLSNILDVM

Row | Compound | inhibition at 10 µM [%]
1 | C=C1CC[C@H]2[C@@H](/C=C(/C)C(=O)[C@@]3(O)C[C@H](C)[C@H](O)[C@@H]3[C@H]1O)C2(C)C [PCM-0216650] | -9.3

Same assay, conditions: read-out: BTK inhibition (%), 0.75 uM BTK, […] probe 3l, 15 min preincubation

Row | Compound | inhibition at 10 µM [%]
2 | C/C=C(/C)C(=O)OC(C)(C)[C@@H]1Cc2c(ccc3ccc(=O)oc23)O1 [PCM-0216607] | -23.9
3 | CC1(C)CC[C@]2(C(=O)O)[C@H](O)C[C@]3(C)C(=CC[C@@H]4[C@@]5(C)CC[C@H](O)[C@@](C)(C=O)[C@@H]5CC[C@]43C)[C@@H]2C1 [PCM-0216608] | -8.5
4 | CC(C)=CCC[C@@](C)(O)[C@H]1CC[C@]2(C)[C@@H]1[C@H](O)C[C@@H]1[C@@]3(C)CC[C@H](O[C@@H]4O[C@H](CO)[C@@H](O)[C@H](O)[C@H]4O[C@@H]4O[C@H](CO)[C@@H](O)[C@H](O)[C@H]4O)C(C)(C)[C@@H]3CC[C@]12C [PCM-0216609] | 21.6
5 | CC(C)=CCC[C@](C)(O)[C@H]1CC[C@]2(C)[C@@H]1[C@H](O)C[C@@H]1[C@@]3(C)CC[C@H](O[C@@H]4O[C@H](CO)[C@@H](O)[C@H](O)[C@H]4O[C@@H]4O[C@H](CO)[C@@H](O)[C@H](O)[C@H]4O)C(C)(C)[C@@H]3CC[C@]12C [PCM-0216610] | 16.2
6 | CC1(C)CC[C@]2(C(=O)O)CC[C@]3(C)C(=CC[C@@H]4[C@@]5(C)C[C@@H](O)[C@H](O)C(C)(C)[C@@H]5CC[C@]43C)[C@@H]2C1 [PCM-0216611] | 20.1
7 | CC1=CC(=O)[C@H]2C[C@@H]1C2(C)C [PCM-0216612] | 7.7
8 | O=CCc1ccccc1 [PCM-0216613] | 6.9
9 | CCCCCCCCCC(=O)OCC(COC(=O)CCCCCCCCC)OC(=O)CCCCCCCCC [PCM-0216614] | 11.6
10 | COc1cc2oc(-c3ccccc3)cc(=O)c2c(OC)c1OC [PCM-0216616] | -34
11 | CSCCC(N)C(=O)O (stereo not drawn) [PCM-0216617] | 17.9
12 | N[C@@H](CO)C(=O)O [PCM-0216618] | 4.3
13 | O=C(O)c1ccc2c(c1)C(=O)c1ccccc1C2=O [PCM-0216619] | 9.3
14 | CC(=O)OC/C=C(/C)CCC=C(C)C [PCM-0216620] | 1.5
15 | CC(=O)c1ccccc1O [PCM-0216621] | 0.8
16 | CC(=O)CCc1ccccc1 [PCM-0216622] | -6.9
17 | C=CCc1ccc(OC(C)=O)c(OC)c1 [PCM-0216623] | 8.5
18 | O=C1CCc2ccccc2O1 [PCM-0216624] | -9.3
19 | Cc1ccc(C=O)o1 [PCM-0216625] | -5.4
20 | COc1ccccc1OCCN [PCM-0216626] | -11.6
21 | Cc1cc(=O)oc2c([N+](=O)[O-])c(O)ccc12 [PCM-0216627] | 13.1
22 | C=C(C)[C@H]1CC=C(C)CC1 [PCM-0216628] | 5.4

Row | Compound | inhibition at 10 µM [%]
23 | CCCCCCCCOC(=O)c1cc(O)c(O)c(O)c1 [PCM-0216629] | 3.9
24 | CCCCCCCCCCCCCCCC(=O)OCC [PCM-0216630] | -12.4
25 | Cc1c[nH]c(=O)[nH]c1=O [PCM-0216631] | 14.7
26 | CCCCCCCCCCCCCCCC(=O)OC [PCM-0216632] | 25.5
27 | CCCCCCCCCC(C)O (stereo not drawn) [PCM-0216633] | -30.1
28 | CCC(=O)NC[C@@H]1C[C@H]1c1cccc2c1CCO2 [PCM-0216634] | 3.9
29 | COc1ccc2c(c1)c(CC(=O)O)c(C)n2C(=O)c1ccc(Cl)cc1 [PCM-0216635] | 10.8
30 | C/C(=C(/CCOC(=O)C(C)C)SS/C(CCOC(=O)C(C)C)=C(\C)N(C=O)Cc1cnc(C)nc1N)N(C=O)Cc1cnc(C)nc1N [PCM-0216636] | -16.2
31 | O=C(O)c1cc(C(=O)O)c2c(n1)C(=O)C(=O)c1cc(C(=O)O)[nH]c1-2 [PCM-0216638] | -0.8
32 | CCOC(=O)[C@H](CCc1ccccc1)N[C@@H](C)C(=O)N(CC(=O)O)C1Cc2ccccc2C1 [PCM-0216640] | -10
33 | COC(=O)N[C@H](C(=O)N1CCC[C@H]1c1ncc(-c2ccc3c(c2)O[C@@H](c2ccccc2)n2c-3cc3cc(-c4cnc([C@@H]5CCCN5C(=O)[C@@H](NC(=O)OC)C(C)C)[nH]4)ccc32)[nH]1)C(C)C [PCM-0216642] | 52.5
34 | C[C@@H](O)[C@H]1C(=O)N2C(C(=O)O)=C(S[C@@H]3CN[C@H](C(=O)Nc4cccc(C(=O)O)c4)C3)[C@H](C)[C@H]12 [PCM-0216643] | 0.8
35 | C/C(=C\CNc1ncnc2c1ncn2[C@@H]1O[C@H](CO)[C@@H](O)[C@H]1O)CO [PCM-0216644] | 0.8
36 | CC(C)(Sc1ccncc1-c1ccc(C#N)c2ccccc12)C(=O)O [PCM-0216646] | -27.8
37 | C[C@@H](OC[C@@]1(c2ccccc2)CC[C@]2(CCC(=O)N2)CN1)c1cc(C(F)(F)F)cc(C(F)(F)F)c1 [PCM-0216647] | -48.6
38 | CNC(=O)c1c(C)oc2cc(Oc3ncnc4cc(OC)c(OC)cc34)ccc12 [PCM-0216648] | 1.4
39 | Cc1c[nH]c(/C=C2\C(=O)Nc3ccccc32)c1CCC(=O)O [PCM-0216652] | 83.4
40 | COc1ccc2[nH]cc(/C=C3\C(=O)Nc4ccc(NC(=O)CCN5CCCCC5)cc43)c2c1 [PCM-0216653] | 51.7
41 | C=C1[C@H](O)C[C@H]2[C@@H](/C=C(\C)C(=O)[C@@]3(O)C[C@H](C)[C@H](O)[C@@H]3[C@H]1O)C2(C)C [PCM-0216654] | -8.6
42 | Ac-PHSCN-NH2 [PCM-0215851] | -5.1
43 | RKDVY [PCM-0214887] | 4.8

The compounds below were run against T1, BTK (assay: not given). Settings: 0.75 uM BTK, […] probe 3l, 15 min preincubation, 10 µM, inhibitor, BTK inhibition (%).

Row | Compound | BTK inhibition (%)
44 | CC(=O)Oc1ccccc1C(=O)O [PCM-0064532] | 7.6
45 | COc1ccc2c(c1)c(CC(=O)O)c(C)n2C(=O)c1ccc(Cl)cc1 [PCM-0065532] | 5.5
46 | Cc1cc(NS(=O)(=O)c2ccc(N)cc2)no1 [PCM-0085795] | -3.1
47 | Nc1ccc(S(=O)(=O)Nc2ncccn2)cc1 [PCM-0085802] | -14
48 | O=C1O[C@H]([C@@H](O)CO)C(O)=C1O [PCM-0085940] | 5.4
49 | Cc1c(O)c(=O)ccn1C [PCM-0085974] | -30.4
50 | CN1[C@@H]2CC[C@H]1CC(OC(=O)c1c[nH]c3ccccc13)C2 (stereo partly drawn) [PCM-0086109] | -11.7
51 | COc1cc(NS(=O)(=O)c2ccc(N)cc2)nc(OC)n1 [PCM-0086362] | -7.8
52 | CC(C(=O)O)c1cccc(Oc2ccccc2)c1 (stereo not drawn) [PCM-0086452] | -45.1
53 | Cc1cc(C)nc(NS(=O)(=O)c2ccc(N)cc2)n1 [PCM-0086513] | -23.3
54 | Nc1nc2[nH]cc(CCc3ccc(C(=O)N[C@@H](CCC(=O)O)C(=O)O)cc3)c2c(=O)[nH]1 [PCM-0090283] | 2.6
55 | Cc1c(O)c(=O)ccn1C [PCM-0090746] | -11.9
56 | C[C@H](O)[C@H](O)[C@@H](O)[C@@H](O)C=O [PCM-0094862] | -7.8
57 | C=C1[C@H](CO)[C@@H](O)C[C@@H]1n1cnc2c(=O)[nH]c(N)nc21 [PCM-0095007] | -4.7

Same assay, conditions: 0.75 uM BTK, […] probe 3l, 15 min preincubation; 10 µM; inhibitor

Row | Compound | BTK inhibition (%)
58 | O=P1(N(CCCl)CCCl)NCCCO1 (stereo not drawn) [PCM-0064707] | -19.3
59 | CN(C)C(=O)Oc1cccc([N+](C)(C)C)c1 [PCM-0064762] | -7.7
60 | Cc1cc2c(C(C)C)c(O)c(O)c(C=O)c2c(O)c1-c1c(C)cc2c(C(C)C)c(O)c(O)c(C=O)c2c1O [PCM-0064881] | 75.5
61 | COc1ccc(C(CN(C)C)C2(O)CCCCC2)cc1 (stereo not drawn) [PCM-0065195] | 6.2
62 | C[N+](C)(C)CCCCCCCCCC[N+](C)(C)C [PCM-0065265] | 11.7
63 | Cn1c(CCCC(=O)O)nc2cc(N(CCCl)CCCl)ccc21 [PCM-0065281] | -3.9
64 | NC(=O)c1ncn([C@@H]2O[C@H](CO)[C@@H](O)[C@H]2O)n1 [PCM-0065438] | -11.7
65 | CN(C)C(=O)Oc1ccc[n+](C)c1 [PCM-0065636] | -25.7
66 | CO[C@H]1/C=C/O[C@@]2(C)Oc3c(C)c(O)c4c(O)c(c(/C=N/N5CCN(C)CC5)c(O)c4c3C2=O)NC(=O)/C(C)=C\C=C\[C@H](C)[C@H](O)[C@@H](C)[C@@H](O)[C@@H](C)[C@H](OC(C)=O)[C@@H]1C [PCM-0086069] | 32.7
67 | Cc1cc(C(C#N)c2ccc(Cl)cc2)c(Cl)cc1NC(=O)c1cc(I)cc(I)c1O (stereo not drawn) [PCM-0086145] | 20.2
68 | CCN(C)C(=O)Oc1cccc([C@H](C)N(C)C)c1 [PCM-0086345] | 1.6
69 | CN1[C@@H]2CC(OC(=O)[C@H](CO)c3ccccc3)C[C@H]1[C@@H]1O[C@@H]12 (stereo partly drawn) [PCM-0086586] | -3.1
70 | COc1ccc2c(c1)[nH]c1c(C)nccc12 [PCM-0088555] | -17.1
71 | COC(=O)C1=C(C)NC(C)=C(C(=O)OCCN2CCN(C(c3ccccc3)c3ccccc3)CC2)C1c1cccc([N+](=O)[O-])c1 (stereo not drawn) [PCM-0090281] | 34.2
72 | O=c1ccc2cc(O[C@@H]3O[C@H](CO)[C@@H](O)[C@H](O)[C@H]3O)c(O)cc2o1 [PCM-0091361] | 0
73 | c1cc2c(cc1[C@H]1OC[C@H]3[C@@H]1CO[C@@H]3c1ccc3c(c1)OCO3)OCO2 [PCM-0094427] | -24.1
74 | CC[C@@]1(O)C(=O)OCc2c1cc1n(c2=O)Cc2cc3cc(O)ccc3nc2-1 [PCM-0094873] | -14

Same assay, conditions: 10 µM, inhibitor

Row | Compound | BTK inhibition (%)
75 | COC1=C[C@@H]2[C@@H]3Cc4ccc(OC)c(O)c4[C@]2(CCN3C)CC1=O [PCM-0090951] | 14.8

Same assay, conditions: 10 µM; inhibitor

Row | Compound | BTK inhibition (%)
76 | COC(=O)C1=CCCN(C)C1 [PCM-0003961] | -10.1
77 | CN1CCC(c2c[nH]c3ccc(O)cc23)CC1 [PCM-0064588] | 16.3
78 | N#C[C@H](O[C@@H]1O[C@H](CO[C@@H]2O[C@H](CO)[C@@H](O)[C@H](O)[C@H]2O)[C@@H](O)[C@H](O)[C@H]1O)c1ccccc1 [PCM-0094813] | -12.5
